These results are taken from PubChem BioAssay (NCI).

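Cultured in 96-well plates, cells were exposed to test compound for 48 hours across five concentrations. Here, GI50 denotes the concentration required for 50% inhibition of growth. At the TGI there is no net growth.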 Bounds are passed on as bounds.

Some test systems named below: HCT-15 colon; CCRF-CEM leukemia; DMS 273 small cell lung; UACC-257 melanoma; DLD-1 colon; MALME-3M melanoma; HOP-62 NSCLC; U251 CNS.
What all share (test): NCI tumour cell line growth inhibition, 48 h

As to `Fc1ccc(C2SCc3nc4ccccc4n32)c(F)c1` (stereo not given), the TGI with HCT-15 colon, in the test with CCRF-CEM leukemia, in the test with DMS 273 small cell lung, in the test on UACC-257 melanoma, in the test with DLD-1 colon and in the test with MALME-3M melanoma was over 100 µM throughout. Also, the TGI in the test on HOP-62 NSCLC and in the test on U251 CNS was over 100 µM each time.
As for `Clc1ccc(Nc2nc3ccccc3nc2-c2cccs2)cc1Cl`, the TGI with HCT-15 colon, with CCRF-CEM leukemia, with DMS 273 small cell lung, with UACC-257 melanoma, in the test with DLD-1 colon and with MALME-3M melanoma was over 100 µM throughout. This compound also registered a TGI in the test with HOP-62 NSCLC of over 100 µM.
For `COc1ccc(-c2cc(Cc3cccs3)c(=O)[nH]n2)cc1`, the TGI with HCT-15 colon, in the test on DMS 273 small cell lung, with UACC-257 melanoma, in the test on MALME-3M melanoma and in the test on U251 CNS was over 100 µM in each case.
As for `C#C[C@]1(O)CCCC2=CC(=O)CC[C@@]21C`, the TGI with HCT-15 colon, in the test on CCRF-CEM leukemia, in the test on DMS 273 small cell lung, in the test with UACC-257 melanoma, in the test on DLD-1 colon and with MALME-3M melanoma was over 100 µM each time. The same compound returned a TGI in the test with U251 CNS of over 100 µM.
On to `Cc1ccc(-c2nnc(-c3nn(-c4ccccc4)c4nc5ccccc5nc34)o2)cc1`, for which the TGI is over 100 µM with HCT-15 colon; 64.3 µM in the test with CCRF-CEM leukemia; 65.1 µM in the test on DMS 273 small cell lung; over 100 µM in the test on UACC-257 melanoma; over 100 µM with DLD-1 colon; 27.3 µM with HOP-62 NSCLC. In the test with U251 CNS, this compound displayed a TGI of 59.1 µM.
Regarding `O=C1CC(c2c[nH]c3ccccc23)C(=O)N1` (stereo not given), the TGI with HCT-15 colon, in the test with CCRF-CEM leukemia, in the test with DMS 273 small cell lung, in the test on UACC-257 melanoma, in the test on DLD-1 colon and with MALME-3M melanoma was over 100 µM each time. Besides, the TGI with HOP-62 NSCLC and with U251 CNS was over 100 µM throughout.
As for `O=C1C(=C([O-])c2ccccc2)C(=O)c2ccccc21.O=C1C(=C([O-])c2ccccc2)C(=O)c2ccccc21.[Fe+2]`, the GI50 in the test with CCRF-CEM leukemia was 80.3 µM; with UACC-257 melanoma, over 100 µM; in the test on DLD-1 colon, over 100 µM; in the test on MALME-3M melanoma, over 100 µM; in the test with HOP-62 NSCLC, over 100 µM; in the test with U251 CNS it was 54.9 µM. Further, the TGI in the test with CCRF-CEM leukemia, with UACC-257 melanoma, in the test with DLD-1 colon, in the test with MALME-3M melanoma, in the test with HOP-62 NSCLC and in the test with U251 CNS was over 100 µM throughout.
Take `CC/C=C\C/C=C\C/C=C\CCCCCCCC(=O)OCC(O)CO` (stereo not given): the TGI in the test with HCT-15 colon is over 88 µM; in the test with CCRF-CEM leukemia, over 72.9 µM; in the test on DMS 273 small cell lung, over 100 µM; with UACC-257 melanoma, over 100 µM; in the test on DLD-1 colon, over 100 µM; with MALME-3M melanoma, over 100 µM. Also, the TGI in the test with HOP-62 NSCLC is over 100 µM; with U251 CNS, over 73.7 µM.
Consider `Cc1ccc2c(C3Cc4ccccc4N3C(=O)/C=C\C(=O)O)c(C)[nH]c2c1` (stereo not given), for which the TGI in the test with HCT-15 colon was 72.5 µM; in the test with CCRF-CEM leukemia, 62.5 µM; with DMS 273 small cell lung, over 100 µM; in the test with UACC-257 melanoma, over 100 µM; in the test on DLD-1 colon, over 100 µM; in the test on MALME-3M melanoma, over 100 µM. Also, the TGI in the test on HOP-62 NSCLC and in the test on U251 CNS was over 100 µM in each case.
As for `COc1cc(C(=O)C/C(CCC(=O)Nc2ccccc2[N+](=O)[O-])=N\NC(N)=O)ccc1O`, the TGI in the test on HCT-15 colon, in the test with CCRF-CEM leukemia, with DMS 273 small cell lung, in the test with UACC-257 melanoma, with MALME-3M melanoma and in the test with HOP-62 NSCLC was over 100 µM throughout. The compound also came in with a TGI in the test with U251 CNS of over 100 µM.
With `N#CC(=C1C=CC(=NO)C=C1)c1ccc(Cl)cc1`, the TGI was 49.6 µM in the test with HCT-15 colon; 9.01 µM with CCRF-CEM leukemia; over 100 µM in the test on DMS 273 small cell lung; 39 µM in the test with DLD-1 colon; 60.7 µM in the test on MALME-3M melanoma; 41.6 µM in the test on HOP-62 NSCLC. The TGI in the test with U251 CNS amounted to 34.3 µM.
Take `CCOC(=O)C1C(=S)NC(=O)C1C#N` (stereo not given): the TGI in the test on HCT-15 colon, in the test on CCRF-CEM leukemia, with DMS 273 small cell lung, in the test on UACC-257 melanoma, in the test with DLD-1 colon and in the test on MALME-3M melanoma was over 100 µM throughout. The TGI in the test on HOP-62 NSCLC and in the test with U251 CNS was over 100 µM each time.
Take `Cc1c(/C=N/N=C/c2[nH]c(C(=O)OC(C)(C)C)c(C)c2C)[nH]c(C(=O)OC(C)(C)C)c1C`: the TGI in the test with HCT-15 colon, with CCRF-CEM leukemia, in the test on DMS 273 small cell lung, with UACC-257 melanoma, with DLD-1 colon and in the test on MALME-3M melanoma was over 100 µM throughout. Further, the TGI in the test on HOP-62 NSCLC and in the test with U251 CNS was over 100 µM each time.
In the case of `O=C1OC(Cc2ccccc2)(N2CCCC2=O)C1c1ccccc1` (stereo not given), the TGI in the test with CCRF-CEM leukemia, with UACC-257 melanoma, in the test on DLD-1 colon, in the test with MALME-3M melanoma, in the test with HOP-62 NSCLC and in the test with U251 CNS was over 100 µM each time.
Turning to `COC(=O)C1(C)CCc2c(OC)ccc(OC)c2C1=O` (stereo not given), the TGI in the test with HCT-15 colon, in the test with CCRF-CEM leukemia, with DMS 273 small cell lung, in the test on UACC-257 melanoma, in the test on DLD-1 colon and in the test on MALME-3M melanoma was over 100 µM each time. Also, the TGI in the test with HOP-62 NSCLC and in the test on U251 CNS was over 100 µM in each case.
`Cc1cccc(C)c1NC(=O)/C(=N/NC(N)=S)C(C)C(=O)c1ccc(Cl)cc1` (stereo not given): the TGI in the test on HCT-15 colon, in the test with CCRF-CEM leukemia, with DMS 273 small cell lung, in the test with UACC-257 melanoma, in the test on DLD-1 colon and in the test on MALME-3M melanoma was over 100 µM throughout. The TGI in the test with HOP-62 NSCLC and in the test with U251 CNS was over 100 µM each time.
Regarding `CC(=O)Nc1ccc(SC#N)c2c(NC(C)=O)cccc12`, the TGI with HCT-15 colon is over 100 µM; with CCRF-CEM leukemia, over 90.6 µM; in the test with DMS 273 small cell lung, over 100 µM; with UACC-257 melanoma, over 100 µM; in the test with DLD-1 colon, over 100 µM; in the test with MALME-3M melanoma it was over 100 µM. Further, the TGI with HOP-62 NSCLC and with U251 CNS was over 100 µM throughout.
